Measurements reported in patent publication US20060045892A1, “Cosmetic compositions” (priority 2004, published 2006).

test system: skin; test: Skin irritation by the applied material; type: in vivo, humans; settings: topical

| SMILES | irritation (reddening) of the skin to which it is applied |
| --- | --- |
| CC1CCC(C(C)C)C(O)C1 (stereo not drawn) [menthol] | can irritate |

test system: skin redness, skin inflammation, irritation and skin aging; test: Materials tested for usefulness in the present invention (improving skin appearance, reducing skin redness, inflammation, irritation); type: in vivo, humans; settings: topical; related materials tested

| SMILES | usefulness (activity) in the present invention |
| --- | --- |
| C1CCCCC1 [cyclohexane] | not to be useful |
| O=C(O)C1CCCCC1 [cyclohexyl carboxylic acid] | not to be useful |
| OC1CCCC1O (stereo not drawn) [1,2-cyclopentanediol] | do not work |
| CC1(C)[C@H]2C[C@H]1[C@@](C)(O)[C@@H](O)C2 [(1R,2R,3S,5S-(−))-pinanediol] | do not work |
| CC1(O)CCCCC1 [1-methylcyclohexanol] | not to be useful |
| ClC1CCCCC1 [cyclohexyl chloride] | not to be useful |
| OCC1(CO)CC2C=CC1C2 (stereo not drawn) [5-norborene-2,2-dimethanol] | do not work |
| C1=CCCCC1 [cyclohexene] | not to be useful |
| CC1CCC(C(C)C)C(O)C1 (stereo not drawn) [menthol] | not to be useful |
| OCCCCC1CCCCC1 [4-cyclohexyl-1-butanol] | not to be useful |
| CC(=O)OC1CCCCC1 [cyclohexyl acetate] | not to be useful |
